The subject of one series is recombinant human IL-1. Kind of series: Recombinant human IL-1 induced mouse thymocyte proliferation. It is filed as cell-based. The following applies: 75 ng/ml rh IL-1. The protocol:
(§1) Lymphocyte proliferation is the standard test for monokine activity. It is highly sensitive, though relatively unspecific, with IL-2, phorbol myristate acetate, concanavalin A' g-type-prostaglandin and indomethacin-nall effecting disturbance. Human monocyte culture media are prepared as described under I.I.b. above, diluted 1:10, 1:20 and 1:40 (v:v), and added to […] (obtained from C3H/HeJ mice) Dulbecco's modified Eagle's medium, containing 20 mM hydroxyethyl-piperazin-ethane-sulfonic acid, 12 mM NaHCO3, 2 mM glutamine, 2% foetal bovine serum, 10 μM 2-mercaptoethanol, […] and antibiotics. The cells are incubated for 2 days in 96-well culture plates and the proliferation rate determined using a ^3 H-thymidine pulse (1 μC/well) during the final 6 hours. The incorporated radioactivity is collected on filter paper and counted. […] Thus determined ED50 s for the compounds D2 and K1 each in substantially pure Z-isomeric form in a series of 2 separate experiments each with 3 parallel determinations are of the order of 30 μM
(§2) In order to rule out an antagonistic effect or a direct influence of the COMPOUNDS OF THE INVENTION on the proliferation of mouse thymocytes which are used above in the LAF-test, the effect of the COMPOUNDS OF THE INVENTION on the incorporation of ^3 H-thymidine Is determined after thymocyte stimulation with recombinant human IL-1 or IL-2.

Series [1] concerns psoriatic arthritis or seronegative spondylarthrosis or osteoarthrosis. The series can be described thus: Clinical trial IV: degenerative joint disease. It counts as in vivo, human. As to conditions: ca. 200 to 1200 mg p.o./day, 8 weeks. As to the method: COMPOUND OF THE INVENTION, e.g. compound D2 or K1 in substantially pure Z-isomeric form, is administered at dosages of from ca. 200 to 1200 mg/p.o./day, once or in divided dosages up to 4×daily for 8 weeks. The subjects are examined at a regular interval of 2 weeks for disease progression on parameters such as pain sensation at the joints, evaluation of the functional capacity according to Steinbrocker, hand grip strength or Richtie Index.

The test system of the next series is pulmonary fibrosis. Kind of series: Pulmonary fibrosis (bleomycin induced). It counts as in vivo, New Zealand white rabbits. As to conditions: ca. 2.5 to 60 mg/kg/day p.o.; substantially pure Z-isomeric form; vs placebo. As to the method:
Testing is carried out in accordance with the general methodology described by G. J. Laurent et al. in Eur. J. Clin. Invest. (1981) 11, 441-448. Pulmonary fibrosis is induced in groups of 4 New Zealand white rabbits (aged 127 days at commencement of the experiment), each weighing 2.0-2.5 kg, by intratracheal instillation of 10 mg/kg bleomycin. The lungs of test animals are examined 2, 4 and 8 weeks later.

A further series relates to human monocytes. Kind of series: LAF-test (thymocyte proliferation), monokine production by human monocytes. It is filed as cell-based. The following applies: Monocyte, substantially pure Z-isomeric form, 2 separate experiments, 3 parallel determinations, read-out: ED50 (inhibition of monokine production). The protocol: (§3) Mononuclear cells are obtained from the blood of healthy volunteers via centrifugation and cultivated on tissue culture dishes with test compound at varying concentrations [Schnyder et al., J. Immunol., 138, 496-503 (1987)]. The non-adherent lymphocytes are removed after 4 hours by washing several times. Fresh medium, test compound and lipopolysaccharide (LPS) as stimulant are added and the monocytes incubated for further 19 hours. The pooled culture media are diluted 1:10 (v:v) with fresh medium and added to confluent rabbit chondrocytes. MP activity in the chondrocyte culture medium is assayed after a further 2 days. COMPOUNDS OF THE INVENTION, in particular compounds D2 and K1, are active in suppressing monokine release in the above test method at concentrations of the order of from about 30 to about 100 μM. Thus determined ED50 S for the compounds D2 and K1 each in substantially pure Z-isomeric form in a series of 3 or 7 separate experiments each with 3 parallel determinations are, for both compounds, of the order of 60 to 100 μM.
Lymphocyte proliferation is the standard test for monokine activity. […] The cells are incubated for 2 days in 96-well culture plates and the proliferation rate determined using a ^3 H-thymidine pulse (1 μC/well) during the final 6 hours. The incorporated radioactivity is collected on filter paper and counted. […]

A further series deals with recombinant human IL-2. Kind of series: Recombinant human IL-2 induced mouse thymocyte proliferation. It counts as cell-based. The following applies: 10 ng/ml rh IL-2. The protocol:
as §1, §2

Another series relates to beagle dogs. The series can be described thus: Tolerability / pilot toxicology in beagle dogs. It is filed as in vivo. The following applies: 150 and 200 mg/kg p.o., gelatine capsules over 5 weeks, olive oil week 6 to 8; substantially pure Z-isomeric form.
The next series relates to periodontal disease. Kind of series: Clinical trial III: calcium resorption - periodontal disease. It is filed as in vivo, human. As to conditions: ca. 400 to 1200 mg p.o./day or injection ca. 0.5 or 1.0 to 5.0 mg per gum pouch; after ca. 2 to 3 weeks. The protocol:
COMPOUND OF THE INVENTION, e.g. compound D2 or K1 in substantially pure Z-isomeric form, is administered at dosages of from ca. 400 to 1200 mg/p.o./day administered once or in divided dosages up to 4x daily, or by injection into the gum at the site of disease at dosages of the order of about 0.5 or 1.0 to about 5.0 mg into each gum pouch. The subjects are examined at regular weekly or 2x weekly intervals for disease progression.

Another series concerns IL-1β. The series can be described thus: RIA-Kit IL-1 quantification in human monocyte cultures. It counts as cell-based. The protocol:
as §3
The procedures of example 1.1.b. above are repeated and IL-1 concentrations in recovered, undiluted culture medium determined employing a CISTRON IL-1 radioimmuno assay kit (the CISTRON kit is obtainable from Cistron, 10, Bloomfield Avenue, P.O. Box 2004, Pine Brook, NJ 07 058 USA. It is IL-1β specific and recognises both intra- and extra-cellular material).

The subject of a further series is IL-1. The series can be described thus: IL-1 induced secretion of metalloproteinase (MP) in chondrocytes. It counts as cell-based. As to conditions: 2 days incubation. The protocol: Furthermore the influence on IL-1 induced secretion of MP is determined using chondrocytes as a target system for IL-1. IL-1 (Genzyme Corporation,USA) is added with or without a COMPOUND OF THE INVENTION or Dexamethasone (control) to chondrocytes and the activity or metalloproteinase is determined in the supernatant media of 2 days incubation period.

The mark [2] stands for this setting: 3H-thymidine incorporation, mouse thymocytes.
[3] abbreviates: CISTRON IL-1 radioimmuno assay, human monocytes.

Take `COC1=Cc2ccccc2/C(=C/C(=O)O)c2cc(Cl)sc21` [Compound K1, [2-Chloro-10-methoxy-4H-benzo[4,5]cyclohepta[1,2-b]thiophen-4-ylidene]-acetic acid]: the “concentration dependency of influence on rh IL-1 induced proliferation” value with recombinant human IL-1 is reported as “no concentration dependency is detectable”. The “influence on recombinant human IL-1 induced proliferation” value with recombinant human IL-1 (setting [2]) is reported as “no significant influence”. For the same compound, in series [1], the “condition (degenerative joint disease)” value was “improvement in condition after the 8 week treatment period”. In the series on pulmonary fibrosis, the pulmonary fibrosis entry is “substantial reduction of pulmonary fibrosis”. Further, the IC50 with human monocytes is about 30 µM. Moreover, the “concentration dependency of influence on rh IL-2 induced proliferation” value in the series with recombinant human IL-2 is given as “no concentration dependency is detectable”. The “influence on recombinant human IL-2 induced proliferation” value with recombinant human IL-2 (setting [2]) is on record as “no significant influence”. In addition, the pathological effects entry in the series on beagle dogs was “no pathological effects are observed”. Besides, the “condition (periodontal disease)” value in the series on periodontal disease is listed as “marked improvement in condition after ca. 2 to 3 weeks continuous therapy”. For the same compound, in the series on IL-1β (setting [3]), the “extra-cellular IL-1 level” value is “extra-cellular content is reduced significantly” and the “intracellular IL-1 level” value is “remain substantially unaffected”. Further, the IC50 in the series on IL-1β (Homo sapiens, Monocyte, 19 h, substantially pure Z-isomeric form, 2-8 experiments, 3 parallel determinations, read-out: ED50 for extra-cellular IL-1 level suppression) is about 25 µM. Moreover, the “influence on IL-1 induced secretion of MP” value in the series with IL-1 is given as “do not influence the IL-1 induced secretion of MP”.

For the origin of these results see patent US4956381A, “Treating tissue calcium depletion or degenerative processes in bone or cartilage” (Sandoz Ltd., priority 1987, dated 1990).
